Measurements published in patent publication US5120647A, “Phospholipase A2 inhibitor” (Shionogi & Co., Ltd., priority 1989, dated 1992).
Structures can show the parent of a compound that is named as a salt. Where two headings read alike, the source gives them in different places.

Columns and labels:
PLA2 from Rat Platelet = target: T1, PLA2 from Rat Platelet (Rattus norvegicus, UniProt P14423); assay: PLA2 inhibitory activity (release of free fatty acid from [14C]phosphatidylethanolamine); assay type: biochemical; conditions: for IC50: 37° C., 20 minutes, pH 7.4; for PLA2 inhibitory effect (in words): statement in words
T1 construct: PLA2 released from thrombin-stimulated rat platelets; from tissue; host or cells: thrombin-stimulated rat platelets (released enzyme, purified on MD 7.1 antibody-coupled Sepharose)
T1 sequence (P14423 22-146): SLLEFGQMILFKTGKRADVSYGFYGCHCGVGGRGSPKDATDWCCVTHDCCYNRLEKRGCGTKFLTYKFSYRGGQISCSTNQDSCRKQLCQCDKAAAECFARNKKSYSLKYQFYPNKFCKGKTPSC
Protocol: The amount of Cinatrin (μg/ml) effective for inhibiting 50% of PLA2 activity (IC50) was determined.
PLA2 inhibitory activities of Cinatrin and its derivatives were determined according to the following procedure.
PLA2 released from thrombin-stimulated rat platelets was prepared by immuno-affinity chromatography using antibody MD 7.1-coupled Sepharose (Murakami et. al, J. Biochem 104: 884-888, 1988). The standard assay conditions included, 250 μl of Tris-HCl buffer (100 mM, pH 7.4), CaCl2 (3 mM), 40 μM [^14 C]phosphatidylethanolamine and the enzyme. The reaction was started by the addition of the enzyme solution. Following incubation at 37° C. for 20 minutes, the reaction was terminated by addition of 1.25 ml of Dole's reagent (Dole, V. P. & H, Meinerts, J. Biol. Chem. 235: 2595-2599, 1960). Then released free fatty acid was extracted, and counted in Liquiflour (Du Pont-New England Nuclear) to determine the release of the radioactivity. Inhibition activity is expressed as percent of enzyme control.

Solubility = assay type: physicochemical
[1] = Table 5, methyl ester, read-out: PLA2 Inhibitory Activity, IC50, methyl ester (converted)
[2] = Table 5, lactone, read-out: PLA2 Inhibitory Activity, IC50, lactone (converted)
[3] = Table 5, seco acid (Na), read-out: PLA2 Inhibitory Activity, IC50, seco acid (Na) (converted)

| Compound | IC50 (PLA2 from Rat Platelet; [1]) [µM] | Solubility in organic solvents (Solubility) | IC50 (PLA2 from Rat Platelet; [2]) [µM] | also measured |
| --- | --- | --- | --- | --- |
| C=CCCCCCCCCC1CC2(OC(=O)C(O)C2(O)C(=O)OC)C(=O)O1 (centres unmarked) [Cinatrin A methyl ester] | 216 | – | – | – |
| CCCCCCCCCCCCC1(C(=O)OC)OC(=O)C(O)C1(O)C(=O)OC (centres unmarked) [Cinatrin C1 methyl ester] | 142 | – | – | – |
| C=CCCCCCCCCC1CC2(OC(=O)C(O)C2(O)C(=O)O)C(=O)O1 (centres unmarked) [Cinatrin A, 8-(dec-9-ene-1-yl)-3,4-dihydroxy-2,6-dioxo-1,7-dioxaspiro [5,5]-nonane-4-carboxylic acid] | – | soluble | 316 | Solubility in water (Solubility): soluble |
| CCCCCCCCCCCC(O)C(C(=O)O)C(O)(C(=O)O)C(O)C(=O)O (centres unmarked) [Cinatrin C2 seco acid (Na salt)] | – | – | – | IC50 (PLA2 from Rat Platelet; [3]): 44.6 µM |
| CCCCCCCCCCCC(O)C1C(=O)OC(C(=O)O)C1(O)C(=O)O (centres unmarked) [Cinatrin C2, 3-hydroxy-4-(1-hydroxydodecyl)-5-oxo-tetrahydrofuran-2,3-dicarboxylic acid] | – | soluble | 801 | – |
| CCCCCCCCCCCCC1(O)C(=O)OC(C(=O)O)C1(O)C(=O)O (centres unmarked) [Cinatrin C3, 4-dodecyl-3,4-dihydroxy-5-oxo-tetrahydrofuran-2,3-dicarboxylic acid] | – | soluble | 78.8 | PLA2 inhibitory effect (in words) (PLA2 from Rat Platelet): particularly effective |
| C=CCCCCCCCCC(O)CC(O)(C(=O)O)C(O)(C(=O)O)C(O)C(=O)O (centres unmarked) [Cinatrin A seco acid (Na salt)] | – | – | – | IC50 (PLA2 from Rat Platelet; [3]): 138 µM |
| CCCCCCCCCCCCC1(O)C(=O)OC(C(=O)OC)C1(O)C(=O)OC (centres unmarked) [Cinatrin C3 methyl ester] | 133 | – | – | – |
| CCCCCCCCCCC(O)CC(O)(C(=O)O)C(O)(C(=O)O)C(O)C(=O)O (centres unmarked) [Cinatrin B seco acid (Na salt)] | – | – | – | IC50 (PLA2 from Rat Platelet; [3]): 75.7 µM |
| CCCCCCCCCCCC(O)C1C(=O)OC(C(=O)OC)C1(O)C(=O)OC (centres unmarked) [Cinatrin C2 methyl ester] | 745 | – | – | – |
| CCCCCCCCCCC1CC2(OC(=O)C(O)C2(O)C(=O)OC)C(=O)O1 (centres unmarked) [Cinatrin B methyl ester] | 215 | – | – | – |
| CCCCCCCCCCCCC(O)(C(=O)O)C(O)(C(=O)O)C(O)C(=O)O (centres unmarked) [Cinatrin C1 seco acid (Na salt)] | – | – | – | IC50 (PLA2 from Rat Platelet; [3]): 70.1 µM |
| CCCCCCCCCCC1CC2(OC(=O)C(O)C2(O)C(=O)O)C(=O)O1 (centres unmarked) [Cinatrin B, 8-(decane-1-yl)-3,4-dihydroxy-2,6-dioxo-1,7-dioxaspiro[5,5]-nonane-4-carboxylic acid] | – | soluble | 147 | PLA2 inhibitory effect (in words) (PLA2 from Rat Platelet): particularly effective |
| CCCCCCCCCCCCC1(C(=O)O)OC(=O)C(O)C1(O)C(=O)O (centres unmarked) [Cinatrin C1, 2-dodecyl-3,4-dihydroxy-5-oxo-tetrahydrofuran-2,3-dicarboxylic acid] | – | soluble | > 801 | Solubility in water (Solubility): slightly soluble; IC50 (PLA2 from Rat Platelet; Table 1, lactone form, read-out: IC50, lactone form (Inhibitory Effect on PLA2 from Rat Platelet)): > 801 µM; Change of PLA2 inhibitory activity on conversion of lactone into ester or seco acid form (in words) (PLA2 from Rat Platelet; ester or seco acid form versus lactone form): becomes more active when it is converted into an ester or seco acid form; PLA2 inhibitory effect (in words) (PLA2 from Rat Platelet): moderately active in its lactone form |
